According to publication PMC11277489, “Novel Piperazine Derivatives of Vindoline as Anticancer Agents” (International Journal of Molecular Sciences, 2024):
Where two headings read alike, the source gives them in different places.

Key:
BT-549 = assay: NCI60 one-dose screen (10 μM), Breast Cancer; format: cell-based; details: Homo sapiens
LOX IMVI = assay: NCI60 one-dose screen (10 μM), Melanoma; format: cell-based, human; details: Homo sapiens, LOX IMVI, read-out: Growth percent rate
SF-539 = assay: NCI60 one-dose screen (10 μM), CNS Cancer; format: cell-based, human; details: Homo sapiens
SK-OV-3 = assay: NCI60 one-dose screen (10 μM), Ovarian Cancer; format: cell-based; details: Homo sapiens
PC-3 = assay: NCI60 one-dose screen (10 μM), Prostate Cancer; format: cell-based; details: Homo sapiens
HS 578T = assay: NCI60 one-dose screen (10 μM), Breast Cancer; format: cell-based; details: Homo sapiens, read-out: Growth percent rate
RXF 393 = assay: NCI60 one-dose screen (10 μM), Renal Cancer; format: cell-based, human; details: Homo sapiens
COLO 205 = assay: NCI60 one-dose screen (10 μM), Colon Cancer; format: cell-based, human; details: Homo sapiens
HOP-92 = assay: NCI60 one-dose screen (10 μM), Non-small Cell Lung Cancer; format: cell-based; details: Homo sapiens; 10 μM; HOP-92, Non-small Cell Lung Cancer; read-out: Growth percent rate
MDA-MB-468 = assay: NCI60 one-dose screen (10 μM), Breast Cancer; format: cell-based; details: Homo sapiens
HCT-15 = assay: NCI60 one-dose screen (10 μM), Colon Cancer; format: cell-based; details: Homo sapiens
NCI/ADR-RES = assay: NCI60 one-dose screen (10 μM), Ovarian Cancer; format: cell-based; details: Homo sapiens, read-out: Growth percent rate
UACC-62 = assay: NCI60 one-dose screen (10 μM), Melanoma; format: cell-based; details: Homo sapiens
NCI-H226 = assay: NCI60 one-dose screen (10 μM), Non-small Cell Lung Cancer; format: cell-based; details: Homo sapiens
MDA-MB-231/ATCC = assay: NCI60 one-dose screen (10 μM), Breast Cancer; format: cell-based, human; details: Homo sapiens
SR = assay: NCI60 one-dose screen (10 μM), Leukemia; format: cell-based; details: Homo sapiens, read-out: Growth percent rate
UO-31 = assay: NCI60 one-dose screen (10 μM), Renal Cancer; format: cell-based; details: Homo sapiens
T-47D = assay: NCI60 one-dose screen (10 μM), Breast Cancer; format: cell-based; details: Homo sapiens, T47D, read-out: Growth percent rate
OVCAR-5 = assay: NCI60 one-dose screen (10 μM), Ovarian Cancer; format: cell-based; details: Homo sapiens
[1] = 10 μM, BT-549, Breast Cancer, read-out: Growth percent rate
[2] = 10 μM, SF-539, CNS Cancer, read-out: Growth percent rate
[3] = 10 μM, SK-OV-3, Ovarian Cancer, read-out: Growth percent rate
[4] = 10 μM, PC-3, Prostate Cancer, read-out: Growth percent rate
[5] = 10 μM, RXF 393, Renal Cancer, read-out: Growth percent rate
[6] = 10 μM, COLO 205, Colon Cancer, read-out: Growth percent rate
[7] = 10 μM, MDA-MB-468, Breast Cancer, read-out: Growth percent rate
[8] = 10 μM, HCT-15, Colon Cancer, read-out: Growth percent rate
[9] = 10 μM, UACC-62, Melanoma, read-out: Growth percent rate
[10] = 10 μM, NCI-H226, Non-small Cell Lung Cancer, read-out: Growth percent rate
[11] = 10 μM, MDA-MB-231/ATCC, Breast Cancer, read-out: Growth percent rate
[12] = 10 μM, UO-31, Renal Cancer, read-out: Growth percent rate
[13] = 10 μM, OVCAR-5, Ovarian Cancer, read-out: Growth percent rate
[14] = BT-549, read-out: Growth percent rate
[15] = SF-539, read-out: Growth percent rate
[16] = MDA-MB-231, read-out: Growth percent rate
[17] = SK-OV-3, read-out: Growth percent rate
[18] = RXF 393, read-out: Growth percent rate
[19] = COLO 205, read-out: Growth percent rate
[20] = HCT-15, read-out: Growth percent rate
[21] = UO-31, read-out: Growth percent rate
[22] = UACC-62, read-out: Growth percent rate
[23] = OVCAR-5, read-out: Growth percent rate
[24] = NCI-H226, read-out: Growth percent rate

Row | Structure (SMILES) | activity at 10 µM (BT-549; [1]) [%] | activity at 10 µM (LOX IMVI; 10 μM, Melanoma) [%] | activity at 10 µM (SF-539; [2]) [%] | activity at 10 µM (SK-OV-3; [3]) [%] | activity at 10 µM (PC-3; [4]) [%] | activity at 10 µM (HS 578T; 10 μM, HS 578T, Breast Cancer) [%] | activity at 10 µM (RXF 393; [5]) [%] | activity at 10 µM (COLO 205; [6]) [%] | activity at 10 µM (HOP-92) [%] | activity at 10 µM (MDA-MB-468; [7]) [%] | activity at 10 µM (HCT-15; [8]) [%] | activity at 10 µM (NCI/ADR-RES; 10 μM, Ovarian Cancer) [%] | activity at 10 µM (UACC-62; [9]) [%] | activity at 10 µM (NCI-H226; [10]) [%] | activity at 10 µM (MDA-MB-231/ATCC; [11]) [%] | activity at 10 µM (SR; 10 μM, Leukemia) [%] | activity at 10 µM (UO-31; [12]) [%] | activity at 10 µM (T-47D; 10 μM, T-47D, Breast Cancer) [%] | activity at 10 µM (OVCAR-5; [13]) [%] | other results
1 | CCC12C=CCN3CCC4(c5cc(NC(=O)CCl)c(OC)cc5N(C)C4C(O)(C(=O)OC)C1OC(C)=O)C32 (stereo not shown) [Compound 12, 10-chloroacetamidovindoline] | 14.7 | 11.5 | 4.74 | 33.9 | 24.5 | -16.8 | -32.6 | 87.2 | 34.3 | -40.8 | 50.1 | 79.4 | 22.1 | 43.5 | – | – | – | – | – | –
2 | CCC12C=CCN3CCC4(c5ccc(OC)cc5N(C)C4C(O)(C(=O)OC)C1OC(=O)CCC(=O)O)C32 (stereo not shown) [Compound 15, 17-(O-3-carboxypropanoyl)vindoline] | 80.5 | 107 | 92.9 | 92.3 | 87.7 | 69.3 | 96.6 | 93.6 | 98.8 | 98.7 | 98.4 | 94.6 | 92.4 | 66.6 | – | – | – | – | – | –
3 | CCC12C=CCN3CCC4(c5cc(NC(=O)CN6CCN(C)CC6)c(OC)cc5N(C)C4C(O)(C(=O)OC)C1OC(C)=O)C32 (stereo not shown) [Compound 16] | 113 | 95.2 | 101 | 113 | 93.1 | 111 | 102 | 105 | – | – | 101 | 104 | 98.9 | 101 | 102 | 93.8 | 89.4 | 104 | 102 | –
4 | CCC12C=CCN3CCC4(c5cc(NC(=O)CN6CCN(Cc7ccc(C(F)(F)F)cc7)CC6)c(OC)cc5N(C)C4C(O)(C(=O)OC)C1OC(C)=O)C32 (stereo not shown) [Compound 18] | – | – | – | – | – | – | – | – | – | – | – | – | – | – | – | – | – | – | – | activity at 10 µM (BT-549; [14]): 47%; activity at 10 µM (LOX IMVI): 58.4%; activity at 10 µM (SF-539; [15]): 73.1%; activity at 10 µM (MDA-MB-231/ATCC; [16]): 43.7%; activity at 10 µM (SK-OV-3; [17]): 87%; activity at 10 µM (HS 578T; Hs-578T): 62.5%; activity at 10 µM (RXF 393; [18]): 41%; activity at 10 µM (SR): 48.2%; activity at 10 µM (COLO 205; [19]): 56.5%; activity at 10 µM (MDA-MB-468; MDA-MB-468, read-out: Growth percent rate): 39.8%; activity at 10 µM (HCT-15; [20]): 49.7%; activity at 10 µM (UO-31; [21]): 50%; activity at 10 µM (T-47D): 51.4%; activity at 10 µM (NCI/ADR-RES): 61.9%; activity at 10 µM (UACC-62; [22]): 74.4%; activity at 10 µM (OVCAR-5; [23]): 108%; activity at 10 µM (NCI-H226; [24]): 67.7%
5 | CCC12C=CCN3CCC4(c5cc(NC(=O)CN6CCN(Cc7ccc(F)cc7)CC6)c(OC)cc5N(C)C4C(O)(C(=O)OC)C1OC(C)=O)C32 (stereo not shown) [Compound 19] | – | – | – | – | – | – | – | – | – | – | – | – | – | – | – | – | – | – | – | activity at 10 µM (BT-549; [14]): 101%; activity at 10 µM (LOX IMVI): 99.1%; activity at 10 µM (SF-539; [15]): 102%; activity at 10 µM (MDA-MB-231/ATCC; [16]): 102%; activity at 10 µM (SK-OV-3; [17]): 108%; activity at 10 µM (PC-3; PC-3, read-out: Growth percent rate): 73.6%; activity at 10 µM (HS 578T; Hs-578T): 110%; activity at 10 µM (RXF 393; [18]): 90.4%; activity at 10 µM (SR): 75.3%; activity at 10 µM (COLO 205; [19]): 101%; activity at 10 µM (HCT-15; [20]): 95%; activity at 10 µM (UO-31; [21]): 89.1%; activity at 10 µM (T-47D): 93%; activity at 10 µM (NCI/ADR-RES): 97.3%; activity at 10 µM (UACC-62; [22]): 96.9%; activity at 10 µM (OVCAR-5; [23]): 111%; activity at 10 µM (NCI-H226; [24]): 97.8%
6 | CCC12C=CCN3CCC4(c5cc(NC(=O)CN6CCN(C(=O)c7ccco7)CC6)c(OC)cc5N(C)C4C(O)(C(=O)OC)C1OC(C)=O)C32 (stereo not shown) [Compound 21] | 117 | 98.5 | 114 | 113 | – | 121 | 133 | 120 | – | 120 | 107 | 112 | 103 | 111 | 98.8 | 97.2 | 89.3 | 111 | 121 | –
7 | CC[C@]12C=CCN3CC[C@@]4(c5ccc(OC)cc5N(C)[C@H]4[C@@](O)(C(=O)OC)[C@@H]1OC(=O)CCCN1CCN(C(=O)c4ccco4)CC1)[C@@H]32 [Compound 26] | 96.8 | 96.6 | 101 | 108 | 80.5 | 96.1 | 102 | 99.7 | – | – | 98.8 | 91.8 | 86.4 | 94.9 | 102 | 75.4 | 80.6 | 82.2 | 112 | –
8 | CC[C@]12C=CCN3CC[C@@]4(c5ccc(OC)cc5N(C)[C@H]4[C@@](O)(C(=O)OC)[C@@H]1OC(=O)CCC(=O)N1CCN(C)CC1)[C@@H]32 [Compound 27] | 88.6 | 93 | 100 | 106 | 101 | 70.8 | 82.3 | 118 | 105 | 124 | 103 | 107 | 112 | 80.4 | – | – | – | – | – | –
